Consider 46 compounds from ChEMBL document CHEMBL1141922, “Benzimidazoles as non-peptide luteinizing hormone-releasing hormone (LHRH) antagonists. Part 3: Discovery of 1-(1H-benzimidazol-5-yl)-3-tert-butylurea derivatives” (Bioorg Med Chem Lett, 2005).

For orientation: IC50 means the concentration at which inhibition is half-maximal. Read a low IC50 as inhibition by little substance.

The target of assay [1] is T1, Gonadotropin-releasing hormone receptor (Homo sapiens, UniProt P30968).
T1 sequence (P30968 whole entry): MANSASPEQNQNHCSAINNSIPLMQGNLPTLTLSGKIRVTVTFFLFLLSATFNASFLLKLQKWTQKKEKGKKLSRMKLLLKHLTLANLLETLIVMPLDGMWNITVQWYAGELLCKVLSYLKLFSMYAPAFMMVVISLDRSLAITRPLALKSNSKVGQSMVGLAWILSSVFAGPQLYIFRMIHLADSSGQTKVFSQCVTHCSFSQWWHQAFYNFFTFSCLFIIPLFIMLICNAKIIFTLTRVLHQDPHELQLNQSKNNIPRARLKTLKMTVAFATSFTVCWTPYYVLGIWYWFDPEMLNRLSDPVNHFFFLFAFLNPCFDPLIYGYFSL
Kind of assay: Inhibitory concentration against human leutinizing releasing hormone receptor.

Assay [2] concerns the target T2, Gonadotropin-releasing hormone receptor (Rattus norvegicus, UniProt P30969).
T2 sequence (P30969 whole entry): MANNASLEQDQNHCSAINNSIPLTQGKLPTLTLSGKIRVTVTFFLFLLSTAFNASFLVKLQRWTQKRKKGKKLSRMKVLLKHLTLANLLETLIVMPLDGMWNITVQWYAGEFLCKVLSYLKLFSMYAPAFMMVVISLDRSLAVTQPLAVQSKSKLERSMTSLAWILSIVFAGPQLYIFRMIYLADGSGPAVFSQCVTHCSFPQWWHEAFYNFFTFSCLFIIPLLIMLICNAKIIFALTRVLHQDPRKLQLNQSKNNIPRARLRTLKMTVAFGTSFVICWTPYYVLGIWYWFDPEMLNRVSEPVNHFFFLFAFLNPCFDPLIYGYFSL
Kind of assay: Inhibitory concentration against rat leutinizing releasing hormone receptor.

As to `COc1ccc([N+](=O)[O-])cc1CSc1nc2cc(NC(=O)NC(C)C)ccc2n1C(C)C`, the 50% inhibitory concentration (IC50) in assay [1] worked out at 600 nM; in assay [2], 280 nM.

`COc1ccc([N+](=O)[O-])cc1CSc1nc2cc(NC(=O)NC(C)(C)C)ccc2n1Cc1ccncc1`: the half-inhibitory concentration (IC50) stood at 47 nM in assay [1] and 240 nM in assay [2].

With `CCCn1c(SCc2cc([N+](=O)[O-])ccc2OC)nc2cc(NC(=O)NC(C)(C)C)cc(C(=O)NCc3ccccc3)c21`, the half-inhibitory concentration (IC50) in assay [1] was found to be 120 nM; in assay [2], 130 nM.

For `CCCn1c(SCc2cc([N+](=O)[O-])ccc2OC)nc2cc(NC(=O)NC(C)(C)C)ccc21`, the values for the 50% inhibitory concentration (IC50) in assay [1] and in assay [2] were 18 nM and 120 nM, respectively.

As to `CC(C)n1c(SCc2ccccc2Cl)nc2cc(NC(=O)C3CC3)ccc21`, the figures for the IC50 in assay [1] and in assay [2] were 6300 nM and more than 10000 nM, respectively.

Regarding `COc1ccc([N+](=O)[O-])cc1CSc1nc2cc(NC(=O)OC(C)(C)C)ccc2n1C(C)C`, the results for the 50% inhibitory concentration (IC50) in assay [1] and in assay [2] were 880 nM and 710 nM, respectively.

As for `COc1ccc([N+](=O)[O-])cc1CSc1nc2cc(NC(=O)NC(C)(C)C)ccc2n1C1CC1`, the figures for the IC50 in assay [1] and in assay [2] were 79 nM and 860 nM, respectively.

Regarding `CNC(=O)Nc1ccc2c(c1)nc(SCc1cc([N+](=O)[O-])ccc1OC)n2C(C)C`, the IC50 was 3300 nM in assay [1] and more than 10000 nM in assay [2].

In the case of `COC(=O)c1ccc(OC)c(CSc2nc3cc(NC(=O)C4CC4)ccc3n2C(C)C)c1`, the figures for the IC50 in assay [1] and in assay [2] were 980 nM and more than 10000 nM, respectively.

As for `COc1ccc([N+](=O)[O-])cc1CSc1nc2cc(NC(=O)C3CCC3)ccc2n1C(C)C`, the values for the concentration for half-maximal inhibition (IC50) in assay [1] and in assay [2] were 1500 nM and 630 nM, respectively.

Turning to `COc1ccc([N+](=O)[O-])cc1CSc1nc2cc(NC(=O)C3CC3)ccc2n1C(C)C`, the half-maximal inhibitory concentration (IC50) in assay [1] was 280 nM; in assay [2], more than 8200 nM.

Regarding `COc1ccc([N+](=O)[O-])cc1CSc1nc2cc(NC(=O)NC(C)(C)C)ccc2n1Cc1ccccn1`, the IC50 in assay [1] came out at 43 nM; in assay [2], 670 nM.

For `CCCn1c(SCc2cc([N+](=O)[O-])ccc2OC)nc2cc(NC(=O)NC(C)(C)C)cc(C(=O)OC)c21`, the concentration for half-maximal inhibition (IC50) in assay [1] was 37 nM; in assay [2] it was 280 nM.

Turning to `COc1ccc(Cl)cc1CSc1nc2cc(NC(=O)C3CC3)ccc2n1C(C)C`, the 50% inhibitory concentration (IC50) in assay [1] was 160 nM; in assay [2], more than 10000 nM.

On to `CCCn1c(SCc2cc([N+](=O)[O-])ccc2OC)nc2cc(NC(=O)NC(C)(C)C)cc(C(=O)O)c21`, for which the IC50 stood at 21 nM in assay [1] and 510 nM in assay [2].

As for `COc1ccc([N+](=O)[O-])cc1CSc1nc2cc(NC(=O)CC(C)(C)C)ccc2n1C(C)C`, the IC50 in assay [1] amounted to 180 nM; in assay [2], 110 nM.

For the compound `COc1ccc(C#N)cc1CSc1nc2cc(NC(=O)C3CC3)ccc2n1C(C)C`, the figures for the IC50 in assay [1] and in assay [2] were 570 nM and more than 10000 nM, respectively.

With `CCCn1c(SCc2cc([N+](=O)[O-])ccc2OC)nc2cc(NC(=O)NC(C)(C)C)cc(C(=O)NCCCN(C)C)c21`, the IC50 came out at 170 nM in assay [1] and 19 nM in assay [2].

`COc1ccc([N+](=O)[O-])cc1CSc1nc2cc(NC(=O)C(C)C)ccc2n1C(C)C`: the figures for the 50% inhibitory concentration (IC50) in assay [1] and in assay [2] were 250 nM and 1500 nM, respectively.

Turning to `CCCn1c(SCc2cc([N+](=O)[O-])ccc2OC)nc2cc(NC(=O)NC(C)(C)C)cc(C(=O)NCc3ccccn3)c21`, the concentration for half-maximal inhibition (IC50) in assay [1] came to 31 nM; in assay [2], 51 nM.

`COCCn1c(SCc2cc([N+](=O)[O-])ccc2OC)nc2cc(NC(=O)NC(C)(C)C)ccc21`: the IC50 in assay [1] was determined as 57 nM; in assay [2], 280 nM.

Turning to `CCCn1c(SCc2cc([N+](=O)[O-])ccc2OC)nc2cc(NC(=O)NC(C)(C)C)cc(C(=O)NCCN)c21`, the concentration for half-maximal inhibition (IC50) in assay [1] came to 210 nM; in assay [2], 55 nM.

Take `CCCn1c(SCc2cc([N+](=O)[O-])ccc2OC)nc2cc(NC(=O)NC(C)(C)C)cc(C(=O)NCCCN(C)Cc3ccccc3)c21`: the concentration for half-maximal inhibition (IC50) was 190 nM in assay [1] and 21 nM in assay [2].

Regarding `COc1ccc([N+](=O)[O-])cc1CSc1nc2cc(NC(=O)NC(C)(C)C)ccc2n1CCc1ccccc1`, the IC50 is 360 nM in assay [1] and 300 nM in assay [2].

Consider `Cc1ccccc1CSc1nc2cc(NC(=O)C3CC3)ccc2n1C(C)C`, for which the half-inhibitory concentration (IC50) is 3200 nM in assay [1] and more than 10000 nM in assay [2].

For `CCCn1c(SCc2cc([N+](=O)[O-])ccc2OC)nc2cc(NC(=O)NC(C)(C)C)cc(C(=O)N(C)C)c21`, the IC50 turned out to be 270 nM in assay [1] and 200 nM in assay [2].

Turning to `COc1ccc([N+](=O)[O-])cc1CSc1nc2cc(NC(=O)NC(C)(C)C)ccc2n1Cc1cccnc1`, the IC50 worked out at 33 nM in assay [1] and 150 nM in assay [2].

With `CCn1c(SCc2cc([N+](=O)[O-])ccc2OC)nc2cc(NC(=O)NC(C)(C)C)ccc21`, the values for the IC50 in assay [1] and in assay [2] were 42 nM and 170 nM, respectively.

For `COc1ccc([N+](=O)[O-])cc1CSc1nc2cc(NC(=O)NC3CC3)ccc2n1C(C)C`, the results for the IC50 in assay [1] and in assay [2] were 1900 nM and 1600 nM, respectively.

Turning to `CCCn1c(SCc2cc([N+](=O)[O-])ccc2OC)nc2cc(NC(=O)NC(C)(C)C)cc(C(=O)NCCc3cccnc3)c21`, the IC50 in assay [1] amounted to 160 nM; in assay [2], 110 nM.

As to `CCCn1c(SCc2cc([N+](=O)[O-])ccc2OC)nc2cc(NC(=O)NC(C)(C)C)cc(C(=O)NCCc3ccccn3)c21`, the IC50 in assay [1] came out at 27 nM; in assay [2], 56 nM.

For the compound `CCCCCn1c(SCc2cc([N+](=O)[O-])ccc2OC)nc2cc(NC(=O)NC(C)(C)C)ccc21`, the values for the IC50 in assay [1] and in assay [2] were 210 nM and 880 nM, respectively.

Take `CCCn1c(SCc2cc([N+](=O)[O-])ccc2OC)nc2cc(NC(=O)NC(C)(C)C)cc(C(=O)NC(C)(C)C)c21`: the IC50 in assay [1] was 410 nM; in assay [2], 490 nM.

As for `Cc1cccc(CSc2nc3cc(NC(=O)C4CC4)ccc3n2C(C)C)c1`, the IC50 in assay [1] was 6500 nM; in assay [2], more than 10000 nM.

Regarding `COc1ccc([N+](=O)[O-])cc1CSc1nc2cc(NC(=O)NC(C)(C)C)ccc2n1-c1ccccc1`, the half-maximal inhibitory concentration (IC50) in assay [1] is 350 nM; in assay [2], more than 2600 nM.

Regarding `CCCn1c(SCc2cc([N+](=O)[O-])ccc2OC)nc2cc(NC(=O)NC(C)(C)C)cc(C(=O)N3CCCC3)c21`, the results for the IC50 in assay [1] and in assay [2] were 610 nM and 140 nM, respectively.

Take `CCCCn1c(SCc2cc([N+](=O)[O-])ccc2OC)nc2cc(NC(=O)NC(C)(C)C)ccc21`: the IC50 in assay [1] is 23 nM; in assay [2], 330 nM.

Take `CCCn1c(SCc2cc([N+](=O)[O-])ccc2OC)nc2cc(NC(=O)NC(C)(C)C)cc(C(=O)NCc3cccnc3)c21`: the figures for the IC50 in assay [1] and in assay [2] were 69 nM and 54 nM, respectively.

On to `COc1ccc([N+](=O)[O-])cc1CSc1nc2cc(NC(=O)NC(C)(C)C)ccc2n1Cc1ccccc1`, for which the half-maximal inhibitory concentration (IC50) in assay [1] is 28 nM; in assay [2] it was 160 nM.

Consider `COc1ccc([N+](=O)[O-])cc1CSc1nc2cc(NC(=O)C(C)(C)C)ccc2n1C(C)C`, for which the concentration for half-maximal inhibition (IC50) in assay [1] was 180 nM; in assay [2] it was more than 10000 nM.

`COc1ccc(C(C)=O)cc1CSc1nc2cc(NC(=O)C3CC3)ccc2n1C(C)C`: the IC50 in assay [1] is 260 nM; in assay [2], more than 10000 nM.

For the compound `COc1ccccc1CSc1nc2cc(NC(=O)C3CC3)ccc2n1C(C)C`, the half-maximal inhibitory concentration (IC50) in assay [1] is 2100 nM; in assay [2], more than 10000 nM.

As to `COc1ccc([N+](=O)[O-])cc1CSc1nc2cc(NC(=O)NC(C)(C)C)ccc2n1C(C)C`, the IC50 in assay [1] and in assay [2] was 62 nM throughout.

Take `CCCn1c(SCc2cc([N+](=O)[O-])ccc2OC)nc2cc(NC(=O)NC(C)(C)C)cc(C(=O)NCc3ccncc3)c21`: the half-inhibitory concentration (IC50) in assay [1] worked out at 61 nM; in assay [2], 35 nM.

Take `CCCn1c(SCc2cc([N+](=O)[O-])ccc2OC)nc2cc(NC(=O)NC(C)(C)C)cc(C(=O)NC)c21`: the IC50 worked out at 41 nM in assay [1] and 23 nM in assay [2].

With `CCCn1c(SCc2cc([N+](=O)[O-])ccc2OC)nc2cc(NC(=O)NC(C)(C)C)cc(C(=O)NCCc3ccncc3)c21`, the figures for the concentration for half-maximal inhibition (IC50) in assay [1] and in assay [2] were 130 nM and 45 nM, respectively.
